In patent publication US5134073A, “Microbiologically produced N-acetyl-2,3-didehydroleucine acylase” (Degussa Aktiengesellschaft, priority 1989, dated 1992):
pEC50: −log10 of the molar value. Several values for one entry are separate records, joined by “and”; a condition that tells them apart may be missing. Equal values may be shown once.

Columns and labels:
[1] = system: Zoogloea ramigera ABI 1; experiment: Induction of N-acetyldehydroleucine acylase in agitated cultures, changing of the inductor; type: cell-based; conditions: inductor 3 g/l; for Acylase activity after 60 hours of incubation as a function of the inductor: agitated culture, pH 7
Procedure: All raw extracts were tested at least with N-acetyldehydroleucine and N-acetyldehydroisoleucine but, in most cases, also with N-acetyldehydrovaline. […] The enzymatic reaction was stopped in the batches incubated at 30° C. by adding 0.25 ml color reagent (1 g/l 2,4-dinitrophenyl hydrazine in 2 N HCl). After further incubation at 30° C. for 10 minutes with N-acetyldehydroleucine as substrate or 25 minutes with the isoleucine or valine derivative, 1.5 ml 2,5 N NaOH was added.
The keto acid released by the enzymatic hydrolysis forms, together with the 2,4-dinitrophenyl hydrazine, a Schiff's base colored red in the alkaline whose absorption was measured in a spectral photometer at 442 nm against a batch without N-acetyldehydroamino acid (=enzyme blank). A blank reading was deducted from these extinction values which blank reading is obtained if the extinction value of a batch only with buffer (=buffer blank) is deducted from that of a batch with buffer and N-acetyldehydroamino acid but without raw extract (=substrate blank). The concentration of the product produced was determined with a calibrated reference for the corresponding keto acid. The enzyme activity is indicated in international units. One unit (U) corresponds to an amount of 1 μmole released keto acid per minute.
Different substances were added in a concentration of 3 g/l as inductors into agitated cultures with a medium of mineral salt solution (cf. Example 1) with 0.5 g/l yeast extract and 0.5 g/l peptone at pH 7. The technology for agitated cultures is described in Example 1 a).

[2] = system: N-acetyldehydroleucine acylase; experiment: Acylase activity versus concentration of N-acetyldehydroamino acids (kinetic data); type: biochemical, Zoogloea ramigera
Procedure: The activity of the acylase was determined under standard conditions (cf. Example 8a)) with various N-acetyldehydroamino acids in concentrations of 0.1 to 300 mM. A second series of measurements with N-acetyldehydroleucinein the above-indicated concentration range was placed in 0.1 M tris/phosphoric acid buffer.
Reaction conditions: 0.1 M glycine, pH 9, 30° C.
Adaptation to the equation v = Vmax. · S/(KM + S +

[3] = system: N-acetyldehydroleucine acylase; experiment: Hydrolysis of other compounds by the acylase (TLC / amino acid analyzer); type: biochemical, Zoogloea ramigera
Procedure: A qualitative check was performed for 81 compounds to see whether they are accepted as substrate by the acylase. The test batches contained:
After 16 and 40 hours incubation at 25° C., specimens were taken from the batches, most of which specimens were analyzed in comparison to substrate standards by means of thin-layer chromatography (70% (v/v) ethanol as mobile solvent). The detection took place with ninhydrin spray reagent. A few specimens were tested in addition or alternatively with the amino acid analyzer.
The amino acids produced from the amino acid amides by means of the action of acylase were detected quantitatively with the amino acid analyzer.

[4] = system: N-acetyldehydroleucine acylase; experiment: Hydrolysis of hydantoins by the acylase; type: biochemical, Zoogloea ramigera; conditions: 25 mM substrate, 1 U/ml acylase, tris/phosphoric acid pH 9, 11.5 hours at 30° C.; ADL = 100%
Procedure: The test batches for the hydrolysis of hydantoins had the following composition:
25 mM substrate or buffer
50 mM tris/phosphoric acid buffer
Isopropylhydantoin, hydantoic acid and dihydrouracil were used as substrates. After 11.5 hours at 30° C., 175 μl 12% (w/v) trichloroacetic acid and 25 μl analytical reagent (10 % (w/v) […] in 6 N HCl) were added, precipitated protein centrifuged off in an Eppendorf table centrifuge and the absorption in the supernatants measured at 450 nm.

[5] = system: ADL acylase; experiment: Influence of glycine on the reaction rate; type: biochemical, Zoogloea ramigera
Procedure: The reaction of glycine in 0 to 1.2 molar concentration dissolved in 0.1 M tris/HCl buffer was determined under standard conditions (example 8a).

Row | SMILES | % Vmax ([2]; glycine, 0.1 M, pH 9, 30° C.) [%] | Km ([2]; glycine, 0.1 M, pH 9, 30° C.) | Substrate specificity: hydrolysis by the acylase [3] | Acylase activity after 60 hours of incubation as a function of the inductor [1] [U/mg] | further results
1 | O=C1CCNC(=O)N1 [Dihydrouracil] |  |  |  |  | rel. activity (%) [4]: 0%
2 | CC(C)C1NC(=O)NC1=O (stereo not shown) [Isopropy hydantoin] |  |  |  |  | rel. activity (%) [4]: 0%
3 | CC(=O)N[C@@H](CC(C)C)C(=O)O [Ac-L-leucine, N-acetyl-L-leucine] |  |  |  | 0.018 | 
4 | CC[C@H](C)[C@H](NC(C)=O)C(=O)O [Ac-L-isoleucine] |  |  |  | 0.039 | 
5 | NCC(=O)O [Glycine, glycine] |  |  |  |  | Influence of activators on substrate splitting [5]: accelerates the substrate splitting as a function of the concentration; pEC50 ([5]; 0.1 M tris/HCl buffer, calculation according to Ingami and Murachi, read-out: Glycine concentration necessary for one-half the maximum reaction acceleration): 1.05
6 | CCC(C)=C(NC(C)=O)C(=O)O [ADI, N-acetyl-2,3-didehydroisoleucine] | 14 | 5.77 mM | hydrolyzes | 0.172 | 
7 | CC(=O)NC(Cc1ccccc1)C(=O)O (racemic) [Ac-D,L-phenylalanine] |  |  |  | 0.031 | 
8 | CC(=O)NC(=Cc1ccccc1)C(=O)O [ACA, 2-acetylamino cinnamic acid] | 46 | 2.62 mM | hydrolyzes | 0.016 | Induction capacity [1]: only slightly active

Continued, in another order:

Row | % Vmax ([2]; glycine, 0.1 M, pH 9, 30° C.) [%] | Km ([2]; glycine, 0.1 M, pH 9, 30° C.) | Substrate specificity: hydrolysis by the acylase [3] | SMILES | Acylase activity after 60 hours of incubation as a function of the inductor [1] [U/mg] | further results
9 | 23 | 20.9 mM | hydrolyzes | CC(=O)NC(C(=O)O)=C(C)C [ADV, N-acetyl-2,3-didehydrovaline] | 0.121 | 
10 | 100 | 4.5 mM and 4.53 mM |  | CC(=O)NC(=CC(C)C)C(=O)O [ADL, N-acetyl-2,3-didehydroleucine] | 0.222 | Induction capacity [1]: highest induction capacity; Km ([2]; glycine, 0.1 M, pH 9, 30° C., listed as N-acetyl-2,3-didehydroleucine): 4.5 mM; % Vmax ([2]; tris-phosphoric acid 0.1 M): 62%; Km ([2]; tris-phosphoric acid 0.1 M): 7.01 mM; rel. activity (%) ([3]; 50 mM test substrate, 0.1 M tris/HCl pH 9, 25° C., hydrolysis rate with N-acetyldehydroleucine = 100%): 100.0%
